In PMC10041529 (Journal of Medicinal Chemistry, 2023):

Tests used:
[1] = target: T1, GSK3β-mediated phosphorylation of Cyclin D1 (Homo sapiens, UniProt P49841); test: Cyclin D1 phosphorylation profile (Western Blot) in transfected HEK293T cells; type: cell-based; conditions: HA-Cyclin D1 + FLAG-GSK3β, 10 μM, 3 h
T1 construct: we used only GSK3β (26–383) kinase domain constructs in our cellular studies; expressed in transfected cells; host or cells: HEK293T (pcDNA3.1, transient)

[2] = system: calcineurin/NFAT pathway with overexpressed GSK3β; test: NFAT translocation assay (EGFP-NFATc1 imaging) in HEK293T cells; type: cell-based, human; conditions: pretreatment 3 h, ionomycin 1 h
Excerpt: One of the important cellular targets of DYRK1A and GSK3β is the NFAT (Nuclear factor of activated T-cells) transcription factor, which plays a major role in regulating the cell cycle.[52] The calcineurin/NFAT signaling controlled by DYRK1A and GSK3β activity is an important target for neurodegenerative processes and β-cell proliferation. Both kinases inactivate NFAT’s transcription factor by phosphorylation of its nuclear pool, which leads to cytosolic export. […] In unstimulated cells, EGFP-NFAT stayed predominantly in the cytosol, and only after stimulation with ionomycin, the nuclear translocation and accumulation of EGFP-NFAT were observed (Figure 4). Overexpression of any of the kinases blocked the nuclear accumulation of EGFP-NFAT upon cell stimulation, proving the negative regulation of the calcineurin/NFAT pathway by DYRK1A or GSK3β.
EGFP-NFATc1 (green) was cotransfected with either a mock vector, DYRK1A (red), or GSK3β (red) into HEK293T cells.
HEK293T cells were grown on a μ-Slide 8 well (IBIDI) to 50%–70% confluency. The plasmids expressing the desired proteins, mCherry-DYRK1A or mCherry-GSK3β and eGFP-NFATc1, were transiently cotransfected for 24 h with PEI Prime (Sigma-Aldrich). […] Images were collected with a Zeiss Axio Observer 3 fluorescence microscope and analyzed in ZEN Blue edition software.

[3] = system: CLK3; design: method as in PMID 21870818; conditions: at 500 nM; cited from earlier work
[4] = system: calcineurin/NFAT pathway with overexpressed DYRK1A; test: NFAT translocation assay (EGFP-NFATc1 imaging) in HEK293T cells; type: cell-based, human; conditions: 5 μM pretreatment 3 h, ionomycin 1 h
[5] = system: DYRK2; design: method as in PMID 21870818; conditions: at 500 nM; cited from earlier work
[6] = system: CK2α; design: method as in PMID 21870818; conditions: at 500 nM; cited from earlier work
[7] = target: T2, DYRK1A-mediated phosphorylation of Cyclin D1 (Homo sapiens, UniProt Q13627); test: Cyclin D1 phosphorylation profile (Western Blot) in transfected HEK293T cells; type: cell-based; conditions: HA-Cyclin D1 + FLAG-DYRK1A, 10 μM, 3 h
T2 construct: expressed in transfected cells; host or cells: HEK293T (pcDNA3.1, transient)

[8] = system: HIPK3; design: method as in PMID 21870818; conditions: at 500 nM; cited from earlier work
[9] = target: T3, DYRK1A kinase domain (126–490) (Homo sapiens, UniProt Q13627); test: Microscale thermophoresis (MST) direct binding assay; conditions: CK2α vs DYRK1A
T3 construct: The recombinant kinase domains of DYRK1A (126–490) and GSK3β (26–383), both with C-terminal His-tag extension; made in house; host or cells: E. coli LOBSTR

[10] = system: GSK3β; design: method as in PMID 21870818; conditions: at 500 nM; cited from earlier work
[11] = system: DYRK1A; design: method as in PMID 29191878; conditions: cell lysates; Table S2 of ref 38; read-out: EC50 (Kinobeads); cited from earlier work

T1 sequence (P49841 26-383): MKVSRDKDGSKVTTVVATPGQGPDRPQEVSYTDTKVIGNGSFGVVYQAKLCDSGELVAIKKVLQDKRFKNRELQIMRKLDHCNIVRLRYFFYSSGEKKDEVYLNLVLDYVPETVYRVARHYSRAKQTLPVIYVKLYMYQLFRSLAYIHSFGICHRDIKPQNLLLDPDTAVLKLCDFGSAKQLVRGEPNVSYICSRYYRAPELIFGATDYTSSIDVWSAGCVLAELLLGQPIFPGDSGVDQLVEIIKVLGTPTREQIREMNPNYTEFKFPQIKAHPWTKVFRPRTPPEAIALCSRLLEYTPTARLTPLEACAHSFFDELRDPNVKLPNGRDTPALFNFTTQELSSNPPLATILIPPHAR

Row | Compound | effect on GSK3β-mediated Cyclin D1 phosphorylation [1] | nuclear translocation of EGFP-NFAT despite overexpressed GSK3β [2] | inhibition of CLK3 [3] | nuclear translocation of EGFP-NFAT despite overexpressed DYRK1A [4] | inhibition of DYRK2 [5] | inhibition of CK2α [6] | effect on DYRK1A-mediated Cyclin D1 phosphorylation [7] | inhibition of HIPK3 [8] | difference in binding between CK2α and DYRK1A [9] | inhibition of GSK3β [10] | EC50 [11]
1 | O=C1Cc2c([nH]c3ccc(Br)cc23)-c2ncccc2N1 [1-azakenpaullone] | same effect | reversed the effect of GSK3β-controlled NFAT cellular localization |  |  |  |  |  |  |  |  | 
2 | O=C(O)c1ccc2c(c1)nc(Nc1cccc(Cl)c1)c1ccncc12 [CX-4945, 5-(3-Chlorophenylamino)benzo[c][2,6]naphthyridine-8-carboxylic Acid] |  | reversed the effect of GSK3β-controlled NFAT cellular localization | more than 90% | restore the calcineurin/NFAT pathway | more than 95% | more than 90% | complete inhibition | more than 90% | 5 fold | 55% | […]
3 | COc1ccc2c(c1)[nH]c1c(C)nccc12 [harmine] |  |  |  | restore the calcineurin/NFAT pathway |  |  | fully abolished |  |  |  | 
